Data published in ChEMBL document CHEMBL1201862, “PubChem BioAssay data set” (2004).
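All cell lines were grown in 96-well plates and treated with compound for 48 hours. GI50: concentration for 50% inhibition of growth.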 The source made the active and inactive calls. No stated cut-off is given here; in the data, active = GI50 up to about 1.1 µM and inactive = higher.

How the values were obtained:
Assay in all cases: NCI tumour cell line growth inhibition, 48 h
M19-MEL = tested on: M19-MEL
RXF 631 = tested on: RXF 631
LXFL 529 = tested on: LXFL 529
SR = tested on: SR
ACHN = tested on: ACHN
Hs-578T = tested on: Hs-578T
MDA-MB-231 = tested on: MDA-MB-231
MDA-MB-435 = tested on: MDA-MB-435
786-0 = tested on: 786-0

Compound: CC1(C)N=C(N)N=C(N)N1c1ccc(OCCCOc2ccccc2)c(Cl)c1
- GI50 (M19-MEL): 0.147 µM (active)

Compound: CC(=O)C(C(=O)C(=O)Nc1cc(Cl)c(Cl)cc1Cl)c1csc(N)n1 (stereo unspecified)
- GI50 (RXF 631): > 100 µM (inactive)
- GI50 (M19-MEL): > 100 µM (inactive)
- GI50 (LXFL 529): > 100 µM (inactive)
- GI50 (SR): > 100 µM (inactive)
- GI50 (ACHN): > 100 µM (inactive)

Compound: COc1cc(C2C(C(=O)O)=C(CO)Oc3cc4c(cc32)OCO4)cc(OC)c1OC (stereo unspecified)
- GI50 (RXF 631): > 100 µM (inactive)
- GI50 (M19-MEL): > 100 µM (inactive)
- GI50 (ACHN): > 100 µM (inactive)

Compound: C=CCn1c(=O)c(C)cn(COCCO)c1=O
- GI50 (Hs-578T): > 100 µM (inactive)
- GI50 (MDA-MB-231): > 100 µM (inactive)
- GI50 (MDA-MB-435): > 100 µM (inactive)
- GI50 (ACHN): > 100 µM (inactive)

Compound: C[C@]12CC[C@H](O)C=C1CC[C@@H]1[C@@H]2CC[C@]2(C)C(c3ccc(=O)oc3)CC[C@]12O (stereo partly specified)
- GI50 (M19-MEL): 0.0129 µM (active)

Compound: CN(C)c1ccc(N2C(=S)SC(=N\c3ccccc3)/C2=N/c2ccccc2)cc1
- GI50 (Hs-578T): > 100 µM (inactive)
- GI50 (MDA-MB-231): > 100 µM (inactive)
- GI50 (MDA-MB-435): > 100 µM (inactive)
- GI50 (SR): > 100 µM (inactive)

Compound: NC(=S)N/N=C1\c2ccccc2CCC1CCC1(O)CCc2ccccc2C1=O (stereo unspecified)
- GI50 (Hs-578T): 16.1 µM (inactive)
- GI50 (MDA-MB-231): 26.8 µM (inactive)
- GI50 (MDA-MB-435): 20.9 µM (inactive)
- GI50 (SR): 35.2 µM (inactive)
- GI50 (ACHN): 35.5 µM (inactive)

Compound: C[S+](C)([O-])=Nn1c(=O)n2n(c1=O)[C@H]1CC[C@@H]2C1
- GI50 (Hs-578T): > 100 µM (inactive)
- GI50 (MDA-MB-231): > 100 µM (inactive)
- GI50 (MDA-MB-435): > 100 µM (inactive)
- GI50 (SR): > 100 µM (inactive)
- GI50 (ACHN): > 100 µM (inactive)

Compound: COC(=O)C1=C(OC(=O)/C=C/c2ccc(Cl)cc2)C(C(=O)OC)[C@@]2(O)[C@@H](C(=O)OC)[C@H](C)C[C@@H]1[C@@H]2C(=O)OC (stereo partly specified)
- GI50 (Hs-578T): 3.9 µM (inactive)
- GI50 (MDA-MB-231): 24.5 µM (inactive)
- GI50 (MDA-MB-435): 14.9 µM (inactive)
- GI50 (ACHN): 22.2 µM (inactive)

Compound: C=C1C(=O)OC2C1CC1OC2C(C)CCC/C(C)=C\CCC1(C)O (stereo unspecified)
- GI50 (M19-MEL): 10.1 µM (inactive)

Compound: CC(C)c1ccccc1SCc1cc(=O)cc(CSc2ccccc2C(C)C)o1
- GI50 (Hs-578T): 13.5 µM (inactive)
- GI50 (MDA-MB-231): 17.9 µM (inactive)
- GI50 (MDA-MB-435): 15 µM (inactive)
- GI50 (SR): 31.7 µM (inactive)
- GI50 (ACHN): 32.6 µM (inactive)

Compound: CCOC(=O)Oc1ccc(C(CNC(C)C)OC(=O)OCC)cc1OC(=O)OCC (stereo unspecified)
- GI50 (Hs-578T): > 100 µM (inactive)
- GI50 (786-0): > 100 µM (inactive)
- GI50 (MDA-MB-231): 26.2 µM (inactive)
- GI50 (MDA-MB-435): > 100 µM (inactive)
- GI50 (SR): > 100 µM (inactive)
- GI50 (ACHN): > 100 µM (inactive)

Compound: CCN(CC)CCCNc1ncc(C)c2[nH]c3ccncc3c12
- GI50 (M19-MEL): 11.5 µM (inactive)

Compound: COc1ccc(C(=O)/C(Br)=C/C(=O)O)cc1
- GI50 (M19-MEL): 14.5 µM (inactive)
- GI50 (MDA-MB-231): 28.2 µM (inactive)
- GI50 (MDA-MB-435): 25.8 µM (inactive)
- GI50 (SR): 25.1 µM (inactive)
- GI50 (ACHN): 55 µM (inactive)

Compound: COc1cc(C2c3cc4c(cc3[C@@H](Nc3cnc5ccccc5c3)C3COC(=O)[C@H]23)OCO4)cc(OC)c1O (stereo partly specified)
- GI50 (M19-MEL): 0.422 µM (active)
